System: 598228-144-R-J1-PDC complex spheroid viability
Test: Anticancer human tumor 598228-144-R-J1-PDC patient-derived serous endometrial adenocarcinoma cell line growth inhibition [GQUAD]
Settings: for IC50: curve of first compound; for viability, T/C: stronger effect = lower value; active means viability on the fitted dose curve at most 10% of control; inactive means the rest
How it was run: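 Viability of tumor cells grown as complex spheroids with endothelial and stromal cells, exposed to drug combinations. Top concentration at or near clinical Cmax (else 10 microM), diluted in half-log increments.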

[1] = second compound 0.0316 µM, first compound 0.0316 µM
[2] = second compound 0.0316 µM, first compound 0.1 µM
[3] = second compound 0.0316 µM, first compound 0.316 µM
[4] = second compound 0.0316 µM, first compound 1 µM
[5] = second compound 0.0316 µM, first compound 3.16 µM
[6] = second compound 0.0316 µM, first compound 10 µM
[7] = second compound 0.1 µM, first compound 0.0316 µM
[8] = second compound 0.1 µM, first compound 0.1 µM
[9] = second compound 0.1 µM, first compound 0.316 µM
[10] = second compound 0.1 µM, first compound 1 µM
[11] = second compound 0.1 µM, first compound 3.16 µM
[12] = second compound 0.1 µM, first compound 10 µM
[13] = second compound 0.316 µM, first compound 0.0316 µM
[14] = second compound 0.316 µM, first compound 0.1 µM
[15] = second compound 0.316 µM, first compound 0.316 µM
[16] = second compound 0.316 µM, first compound 1 µM
[17] = second compound 0.316 µM, first compound 3.16 µM
[18] = second compound 0.316 µM, first compound 10 µM
[19] = second compound 1 µM, first compound 0.0316 µM
[20] = second compound 1 µM, first compound 0.1 µM
[21] = second compound 1 µM, first compound 0.316 µM
[22] = second compound 1 µM, first compound 1 µM
[23] = second compound 1 µM, first compound 3.16 µM
[24] = second compound 1 µM, first compound 10 µM
[25] = second compound 3.16 µM, first compound 0.0316 µM
[26] = second compound 3.16 µM, first compound 0.1 µM
[27] = second compound 3.16 µM, first compound 0.316 µM
[28] = second compound 3.16 µM, first compound 1 µM
[29] = second compound 3.16 µM, first compound 3.16 µM
[30] = second compound 3.16 µM, first compound 10 µM
[31] = second compound 10 µM, first compound 0.0316 µM
[32] = second compound 10 µM, first compound 0.1 µM
[33] = second compound 10 µM, first compound 0.316 µM
[34] = second compound 10 µM, first compound 1 µM
[35] = second compound 10 µM, first compound 3.16 µM
[36] = second compound 10 µM, first compound 10 µM
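Further: spheroids exposed to the agents for one week before reading.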
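Wherever viability, T/C is given: percent of vehicle DMSO control viability so 100% = untreated growth.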

CC(C)n1c(=O)n(C)c2cnc3cc(F)c(-c4ccc(OCCCN5CCCCC5)nc4)cc3c21 + CN(C)c1ccc(Nc2c3ccc(NC(=O)CCN4CCCC4)cc3nc3cc(NC(=O)CCN4CCCC4)ccc23)cc1
217 nM: IC50 (second compound 10 µM)
9920 nM: IC50 (second compound 0.0316 µM)
> 10000 nM: IC50 (second compound 0.1 µM) | IC50 (second compound 0.316 µM)
8290 nM: IC50 (second compound 1 µM)
inactive: viability, T/C [1] 112% | viability, T/C [2] 79.6% | viability, T/C [3] 102% | viability, T/C [4] 93% | viability, T/C [5] 78.1% | viability, T/C [6] 49.7% | viability, T/C [7] 117% | viability, T/C [8] 82.9% | viability, T/C [9] 94% | viability, T/C [10] 92.2% | viability, T/C [11] 86.8% | viability, T/C [12] 57.2% | viability, T/C [13] 110% | viability, T/C [14] 102% | viability, T/C [15] 98.9% | viability, T/C [16] 89.3% | viability, T/C [17] 89.5% | viability, T/C [18] 60% | viability, T/C [19] 75.7% | viability, T/C [20] 87.4% | viability, T/C [21] 99.2% | viability, T/C [22] 87.7% | viability, T/C [23] 83.1% | viability, T/C [24] 43.5% | viability, T/C [25] 98.2% | viability, T/C [26] 78.3% | viability, T/C [27] 103% | viability, T/C [28] 80.2% | viability, T/C [29] 83.3% | viability, T/C [30] 34.7% | viability, T/C [31] 70.8% | viability, T/C [32] 60.3% | viability, T/C [33] 44.7% | viability, T/C [34] 29.6% | viability, T/C [35] 15.8%
active: viability, T/C [36] 5.05%
6870 nM: IC50 (second compound 3.16 µM)

CCc1c2c(nc3ccc(O)cc13)-c1cc3c(c(=O)n1C2)COC(=O)[C@]3(O)CC + Cc1[nH]c2ccc(F)cc2c1-c1nc2c3cccnc3c3ncccc3c2[nH]1
21 nM: IC50 (second compound 0.0316 µM)
2.09 nM: IC50 (second compound 10 µM)
37.2 nM: IC50 (second compound 0.316 µM)
inactive: viability, T/C (second compound 0.0316 µM, first compound 0.000999 µM) 74.7% | viability, T/C (second compound 0.0316 µM, first compound 0.00316 µM) 73.5% | viability, T/C (second compound 0.0316 µM, first compound 0.00999 µM) 53.8% | viability, T/C [1] 42.9% | viability, T/C (second compound 0.0316 µM, first compound 0.0999 µM) 37.9% | viability, T/C [3] 13.8% | viability, T/C (second compound 0.1 µM, first compound 0.000999 µM) 67% | viability, T/C (second compound 0.1 µM, first compound 0.00316 µM) 67.6% | viability, T/C (second compound 0.1 µM, first compound 0.00999 µM) 55.4% | viability, T/C [7] 34.9% | viability, T/C (second compound 0.1 µM, first compound 0.0999 µM) 31.3% | viability, T/C [9] 19.5% | viability, T/C (second compound 0.316 µM, first compound 0.000999 µM) 75.9% | viability, T/C (second compound 0.316 µM, first compound 0.00316 µM) 62.7% | viability, T/C (second compound 0.316 µM, first compound 0.00999 µM) 66.3% | viability, T/C [13] 53.4% | viability, T/C (second compound 0.316 µM, first compound 0.0999 µM) 34.3% | viability, T/C [15] 21.4% | viability, T/C (second compound 1 µM, first compound 0.000999 µM) 55% | viability, T/C (second compound 1 µM, first compound 0.00316 µM) 47.3% | viability, T/C (second compound 1 µM, first compound 0.00999 µM) 43% | viability, T/C [19] 37.9% | viability, T/C (second compound 1 µM, first compound 0.0999 µM) 27.8% | viability, T/C [21] 17.8% | viability, T/C (second compound 3.16 µM, first compound 0.000999 µM) 40.6% | viability, T/C (second compound 3.16 µM, first compound 0.00316 µM) 36.1% | viability, T/C (second compound 3.16 µM, first compound 0.00999 µM) 29.7% | viability, T/C [25] 29.2% | viability, T/C (second compound 3.16 µM, first compound 0.0999 µM) 13.1% | viability, T/C (second compound 10 µM, first compound 0.000999 µM) 57% | viability, T/C (second compound 10 µM, first compound 0.00316 µM) 45.1% | viability, T/C (second compound 10 µM, first compound 0.00999 µM) 38.8% | viability, T/C [31] 29.7% | viability, T/C (second compound 10 µM, first compound 0.0999 µM) 24.1% | viability, T/C [33] 20.4%
active: viability, T/C [27] 8.4%
13.9 nM: IC50 (second compound 0.1 µM)
< 0.999 nM: IC50 (second compound 3.16 µM)
2.57 nM: IC50 (second compound 1 µM)

CC(=O)O[C@H]1C(=O)[C@@]2(C)[C@H]([C@H](OC(=O)c3ccccc3)[C@]3(O)C[C@H](OC(=O)[C@H](O)[C@@H](NC(=O)c4ccccc4)c4ccccc4)C(C)=C1C3(C)C)[C@]1(OC(C)=O)CO[C@@H]1C[C@@H]2O + Cc1cnc(CNC(=O)c2c(=O)c3ccc(N4CCCN(C)CC4)nc3n3c2sc2ccccc23)cn1
active: viability, T/C [31] 0.38% | viability, T/C [32] 19.7% | viability, T/C [33] 0.53% | viability, T/C [34] 0.57% | viability, T/C [35] 10.9% | viability, T/C [36] 12.1%
< 31.6 nM: IC50 (second compound 0.0316 µM) | IC50 (second compound 0.1 µM) | IC50 (second compound 3.16 µM) | IC50 (second compound 10 µM)
7490 nM: IC50 (second compound 1 µM)
533 nM: IC50 (second compound 0.316 µM)
inactive: viability, T/C [1] 50.2% | viability, T/C [2] 37% | viability, T/C [3] 45.2% | viability, T/C [4] 41.3% | viability, T/C [5] 43.7% | viability, T/C [6] 43.2% | viability, T/C [7] 48.4% | viability, T/C [8] 54.9% | viability, T/C [9] 44.5% | viability, T/C [10] 49.9% | viability, T/C [11] 53.2% | viability, T/C [12] 51.7% | viability, T/C [13] 49% | viability, T/C [14] 67.9% | viability, T/C [15] 45.9% | viability, T/C [16] 39.1% | viability, T/C [17] 51.2% | viability, T/C [18] 49.6% | viability, T/C [19] 52.1% | viability, T/C [20] 59.9% | viability, T/C [21] 53.2% | viability, T/C [22] 50% | viability, T/C [23] 50% | viability, T/C [24] 50.9% | viability, T/C [25] 46.9% | viability, T/C [26] 38.8% | viability, T/C [27] 43.2% | viability, T/C [28] 34.5% | viability, T/C [29] 40.4% | viability, T/C [30] 44.5%

COc1cccc2c1C(=O)c1c(O)c3c(c(O)c1C2=O)CC(O)(C(=O)CO)CC3OC1CC(N)C(O)C(C)O1 (stereo not drawn) + CN(C)c1ccc(Nc2c3ccc(NC(=O)CCN4CCCC4)cc3nc3cc(NC(=O)CCN4CCCC4)ccc23)cc1
536 nM: IC50 (second compound 10 µM)
inactive: viability, T/C [1] 79.1% | viability, T/C [2] 83.3% | viability, T/C [3] 66.6% | viability, T/C [4] 31% | viability, T/C [7] 95.5% | viability, T/C [8] 84.8% | viability, T/C [9] 71% | viability, T/C [10] 33.5% | viability, T/C [13] 96.1% | viability, T/C [14] 73.2% | viability, T/C [15] 68.9% | viability, T/C [16] 42.2% | viability, T/C [17] 3.61% | viability, T/C [19] 87.1% | viability, T/C [20] 73.7% | viability, T/C [21] 58.4% | viability, T/C [22] 51.9% | viability, T/C [23] 1.46% | viability, T/C [25] 81.6% | viability, T/C [26] 80.1% | viability, T/C [27] 71.6% | viability, T/C [28] 44.3% | viability, T/C [31] 59.8% | viability, T/C [32] 64.5% | viability, T/C [33] 47.7% | viability, T/C [34] 42.3%
774 nM: IC50 (second compound 3.16 µM)
active: viability, T/C [5] 1.02% | viability, T/C [6] 0.57% | viability, T/C [11] 2.25% | viability, T/C [12] 0.29% | viability, T/C [18] 0.89% | viability, T/C [24] 1.05% | viability, T/C [29] 1.7% | viability, T/C [30] 0.36% | viability, T/C [35] 1.22% | viability, T/C [36] 0.77%
655 nM: IC50 (second compound 1 µM)
617 nM: IC50 (second compound 0.316 µM)
547 nM: IC50 (second compound 0.0316 µM)
586 nM: IC50 (second compound 0.1 µM)

From PubChem BioAssay AID2060506 (Molecular Pharmacology Branch, DTP, NCI, 2025)
